In patent US20200331925A1, “HETEROCYCLIC COMPOUNDS FOR THE TREATMENT OF ABNORMAL CELLULAR PROLIFERATION” (G1 Therapeutics, Inc., priority 2018, published 2020):

How the values were obtained:
Assay type in all cases: biochemical
CDK1/Cyclin B1 = CDK1/Cyclin B1 (Homo sapiens, UniProt P06493); assay: CDK1/Cyclin B1 kinase assay (Nanosyn, Caliper microfluidic); settings: 12-point dose-response, ATP at Km (40 μM), 3 hr
Method: (§1) Selected compounds disclosed herein were tested in kinase assays by Nanosyn (Santa Clara, Calif.) to determine their inhibitory effect on selected CDKs. The assays were performed using microfluidic kinase detection technology (Caliper Assay Platform). The compounds were tested in 12-point dose-response format in singlicate at Kmfor ATP. Phosphoacceptor substrate peptide concentration used was 1 μM for all assays and Staurosporine was used as the reference compound for all assays. Specifics of each assay are as described below: CDK1/Cyclin B1: Enzyme concentration: 0.08 nM; ATP concentration: 40 μM; Incubation time: 3 hr.

CDK2/Cyclin A = CDK2/Cyclin A (Homo sapiens, UniProt P24941); assay: CDK2/Cyclin A kinase assay (Nanosyn, Caliper microfluidic); settings: 12-point dose-response, ATP at Km (50 μM), 3 hr
Method: as §1, with “CDK2/Cyclin A:” for “CDK1/Cyclin B1:”, “0.1” for “0.08”, “50” for “40”

CDK2/Cyclin E = CDK2/Cyclin E (Homo sapiens, UniProt P24941); assay: CDK2/Cyclin E kinase assay (Nanosyn, Caliper microfluidic); settings: 12-point dose-response, ATP at Km (100 μM), 3 hr
Method: as §1, with “CDK2/Cyclin E:” for “CDK1/Cyclin B1:”, “0.15” for “0.08”, “100” for “40”

CDK3/Cyclin E = CDK3/Cyclin E (Homo sapiens, UniProt Q00526); assay: CDK3/Cyclin E kinase assay (Nanosyn, Caliper microfluidic); settings: 12-point dose-response, ATP at Km (400 μM), 3 hr
Method: as §1, with “CDK3/Cyclin E:” for “CDK1/Cyclin B1:”, “1” for “0.08”, “400” for “40”

CDK4/Cyclin D1 = CDK4/Cyclin D1 (Homo sapiens, UniProt P11802); assay: CDK4/Cyclin D1 kinase assay (Nanosyn, Caliper microfluidic); settings: 12-point dose-response, ATP at Km (200 μM), 3 hr; Table 4
Method: as §1, with “CDK4/Cyclin D1:” for “CDK1/Cyclin B1:”, “1” for “0.08”, “200” for “40”

CDK5/p35 = CDK5/p35 (Homo sapiens, UniProt Q00535); assay: CDK5/p35 kinase assay (Nanosyn, Caliper microfluidic); settings: 12-point dose-response, ATP at Km (20 μM), 3 hr
Method: as §1, with “CDK5/p35:” for “CDK1/Cyclin B1:”, “0.05” for “0.08”, “20” for “40”

CDK5/p25 = CDK5/p25 (Homo sapiens, UniProt Q00535); assay: CDK5/p25 kinase assay (Nanosyn, Caliper microfluidic); settings: 12-point dose-response, ATP at Km (20 μM), 3 hr
Method: as §1, with “CDK5/p25:” for “CDK1/Cyclin B1:”, “0.1” for “0.08”, “20” for “40”

CDK6/Cyclin D3 = CDK6/Cyclin D3 (Homo sapiens, UniProt Q00534); assay: CDK6/Cyclin D3 kinase assay (Nanosyn, Caliper microfluidic); settings: 12-point dose-response, ATP at Km (300 μM), 3 hr
Method: as §1, with “CDK6/Cyclin D3:” for “CDK1/Cyclin B1:”, “2” for “0.08”, “300” for “40”

CDK7/Cyclin H = CDK7/Cyclin H (Homo sapiens, UniProt P50613); assay: CDK7/Cyclin H kinase assay (Nanosyn, Caliper microfluidic); settings: 12-point dose-response, ATP at Km (50 μM), 17 hr
Method: as §1, with “CDK7/Cyclin H:” for “CDK1/Cyclin B1:”, “10” for “0.08”, “50” for “40”, “17” for “3”

CDK9/Cyclin T = CDK9/Cyclin T (Homo sapiens, UniProt P50750); assay: CDK9/Cyclin T kinase assay (Nanosyn, Caliper microfluidic); settings: 12-point dose-response, ATP at Km (10 μM), 17 hr; Table 5
Method: as §1, with “[…]:” for “CDK1/Cyclin B1:”, “5” for “0.08”, “10” for “40”, “17” for “3”

CDK6/Cyclin D3, sequence (Q00534 whole entry): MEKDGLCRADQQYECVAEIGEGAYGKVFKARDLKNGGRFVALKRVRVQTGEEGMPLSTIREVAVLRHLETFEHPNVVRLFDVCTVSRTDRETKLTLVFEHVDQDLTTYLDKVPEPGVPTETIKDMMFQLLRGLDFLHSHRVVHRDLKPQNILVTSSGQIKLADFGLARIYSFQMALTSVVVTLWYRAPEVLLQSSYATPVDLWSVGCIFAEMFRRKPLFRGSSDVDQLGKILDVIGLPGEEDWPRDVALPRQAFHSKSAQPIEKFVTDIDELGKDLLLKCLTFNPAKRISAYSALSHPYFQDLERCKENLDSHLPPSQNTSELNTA
CDK6/Cyclin D3, sequence (P30281 whole entry partner): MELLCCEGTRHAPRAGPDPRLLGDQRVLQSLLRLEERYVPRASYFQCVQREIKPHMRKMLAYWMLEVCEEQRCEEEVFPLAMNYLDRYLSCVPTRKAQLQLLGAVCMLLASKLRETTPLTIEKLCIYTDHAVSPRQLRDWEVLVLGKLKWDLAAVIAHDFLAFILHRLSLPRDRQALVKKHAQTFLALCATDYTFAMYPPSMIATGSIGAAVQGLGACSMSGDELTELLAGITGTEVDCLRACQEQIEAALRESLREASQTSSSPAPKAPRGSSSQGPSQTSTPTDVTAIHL
CDK7/Cyclin H, sequence (P50613 whole entry): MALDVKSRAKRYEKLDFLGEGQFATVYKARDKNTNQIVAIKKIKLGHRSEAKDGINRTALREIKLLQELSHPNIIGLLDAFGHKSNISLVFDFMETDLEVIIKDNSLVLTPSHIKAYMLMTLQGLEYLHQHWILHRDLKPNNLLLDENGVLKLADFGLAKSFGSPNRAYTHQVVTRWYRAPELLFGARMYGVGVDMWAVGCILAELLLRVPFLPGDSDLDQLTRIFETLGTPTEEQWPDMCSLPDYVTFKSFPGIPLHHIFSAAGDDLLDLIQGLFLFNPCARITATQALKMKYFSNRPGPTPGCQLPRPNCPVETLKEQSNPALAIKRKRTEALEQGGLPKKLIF
CDK7/Cyclin H, sequence (P51946 whole entry partner): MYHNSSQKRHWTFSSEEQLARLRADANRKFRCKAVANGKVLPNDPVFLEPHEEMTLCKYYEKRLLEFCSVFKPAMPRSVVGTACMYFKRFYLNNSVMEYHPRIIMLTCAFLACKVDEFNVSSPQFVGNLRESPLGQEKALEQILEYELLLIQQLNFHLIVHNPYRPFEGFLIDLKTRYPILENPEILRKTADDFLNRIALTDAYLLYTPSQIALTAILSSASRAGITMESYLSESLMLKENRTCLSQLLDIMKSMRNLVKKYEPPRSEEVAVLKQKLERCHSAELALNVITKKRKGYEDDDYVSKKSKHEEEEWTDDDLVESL
CDK7/Cyclin H, sequence (P51948 whole entry partner): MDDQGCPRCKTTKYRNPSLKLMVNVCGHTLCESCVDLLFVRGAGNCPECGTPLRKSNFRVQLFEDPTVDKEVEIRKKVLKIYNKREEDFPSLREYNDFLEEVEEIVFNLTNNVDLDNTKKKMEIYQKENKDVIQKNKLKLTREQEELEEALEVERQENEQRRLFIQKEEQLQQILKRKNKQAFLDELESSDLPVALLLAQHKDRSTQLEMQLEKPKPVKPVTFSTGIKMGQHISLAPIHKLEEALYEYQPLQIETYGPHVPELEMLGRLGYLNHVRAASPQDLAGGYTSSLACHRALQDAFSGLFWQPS
CDK9/Cyclin T, sequence (P50750 whole entry): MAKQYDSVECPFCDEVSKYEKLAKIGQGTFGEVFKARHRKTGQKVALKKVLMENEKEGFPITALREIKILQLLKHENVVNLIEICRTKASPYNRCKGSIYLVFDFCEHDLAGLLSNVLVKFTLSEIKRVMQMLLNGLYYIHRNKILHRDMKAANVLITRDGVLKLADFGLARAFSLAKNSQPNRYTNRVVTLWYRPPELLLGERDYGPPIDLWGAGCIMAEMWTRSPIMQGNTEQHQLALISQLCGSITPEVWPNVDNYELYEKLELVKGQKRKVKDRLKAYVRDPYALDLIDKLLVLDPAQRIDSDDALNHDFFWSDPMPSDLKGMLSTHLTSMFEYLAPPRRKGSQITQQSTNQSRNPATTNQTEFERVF
CDK9/Cyclin T, sequence (O60563 whole entry partner): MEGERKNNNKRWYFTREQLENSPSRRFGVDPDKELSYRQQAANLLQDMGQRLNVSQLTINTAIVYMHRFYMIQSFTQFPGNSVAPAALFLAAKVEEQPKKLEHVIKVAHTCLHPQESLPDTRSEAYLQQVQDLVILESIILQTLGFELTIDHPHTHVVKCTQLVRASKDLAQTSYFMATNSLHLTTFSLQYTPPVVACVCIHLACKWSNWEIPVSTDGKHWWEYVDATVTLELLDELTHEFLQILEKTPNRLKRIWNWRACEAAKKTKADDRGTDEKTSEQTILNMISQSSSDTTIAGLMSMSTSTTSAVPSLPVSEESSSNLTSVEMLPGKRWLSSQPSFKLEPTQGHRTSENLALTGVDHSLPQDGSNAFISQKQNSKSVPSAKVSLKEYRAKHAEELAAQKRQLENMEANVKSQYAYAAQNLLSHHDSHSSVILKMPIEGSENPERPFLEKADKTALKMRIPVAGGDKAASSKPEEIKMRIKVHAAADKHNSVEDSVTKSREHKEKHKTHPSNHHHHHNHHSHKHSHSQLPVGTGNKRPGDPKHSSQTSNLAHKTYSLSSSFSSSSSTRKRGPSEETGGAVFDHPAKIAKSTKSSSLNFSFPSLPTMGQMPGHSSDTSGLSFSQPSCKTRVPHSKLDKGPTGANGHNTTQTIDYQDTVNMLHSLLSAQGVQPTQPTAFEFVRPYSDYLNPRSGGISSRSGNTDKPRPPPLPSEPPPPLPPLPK
CDK5/p25, sequence (Q00535 whole entry): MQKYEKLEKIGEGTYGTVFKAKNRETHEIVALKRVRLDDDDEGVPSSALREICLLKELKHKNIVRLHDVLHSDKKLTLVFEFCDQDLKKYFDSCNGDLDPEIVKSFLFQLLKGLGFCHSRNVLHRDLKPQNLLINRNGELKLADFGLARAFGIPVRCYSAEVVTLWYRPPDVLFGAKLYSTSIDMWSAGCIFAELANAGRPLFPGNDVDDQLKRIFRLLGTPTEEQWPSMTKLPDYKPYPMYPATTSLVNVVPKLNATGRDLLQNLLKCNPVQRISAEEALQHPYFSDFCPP
CDK5/p25, sequence (Q15078 99-307 partner limits assumed): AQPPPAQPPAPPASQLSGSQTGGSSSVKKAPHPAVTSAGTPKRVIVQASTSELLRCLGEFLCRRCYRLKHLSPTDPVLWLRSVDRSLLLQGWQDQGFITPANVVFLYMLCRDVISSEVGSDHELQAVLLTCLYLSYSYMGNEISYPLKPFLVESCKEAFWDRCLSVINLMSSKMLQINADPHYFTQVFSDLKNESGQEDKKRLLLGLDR
CDK5/p35, sequence (Q00535 whole entry): as the sequence (Q00535 whole entry) above
CDK5/p35, sequence (Q15078 whole entry partner): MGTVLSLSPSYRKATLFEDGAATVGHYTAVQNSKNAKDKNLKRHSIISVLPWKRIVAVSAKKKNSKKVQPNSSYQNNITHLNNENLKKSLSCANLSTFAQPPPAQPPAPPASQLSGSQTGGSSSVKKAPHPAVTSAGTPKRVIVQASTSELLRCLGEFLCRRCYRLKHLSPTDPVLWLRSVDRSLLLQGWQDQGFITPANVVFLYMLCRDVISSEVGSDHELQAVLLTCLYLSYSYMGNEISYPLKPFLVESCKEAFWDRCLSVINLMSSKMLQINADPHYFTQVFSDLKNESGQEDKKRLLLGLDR
CDK1/Cyclin B1, sequence (P06493 whole entry): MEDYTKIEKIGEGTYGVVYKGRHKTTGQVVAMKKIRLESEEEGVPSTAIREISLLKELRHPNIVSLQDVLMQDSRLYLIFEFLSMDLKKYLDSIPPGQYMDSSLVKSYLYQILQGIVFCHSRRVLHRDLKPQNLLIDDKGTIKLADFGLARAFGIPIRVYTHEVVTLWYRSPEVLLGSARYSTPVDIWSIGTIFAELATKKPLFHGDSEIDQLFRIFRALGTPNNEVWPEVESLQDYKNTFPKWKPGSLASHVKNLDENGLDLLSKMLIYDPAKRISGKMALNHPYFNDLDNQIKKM
CDK1/Cyclin B1, sequence (P14635 whole entry partner): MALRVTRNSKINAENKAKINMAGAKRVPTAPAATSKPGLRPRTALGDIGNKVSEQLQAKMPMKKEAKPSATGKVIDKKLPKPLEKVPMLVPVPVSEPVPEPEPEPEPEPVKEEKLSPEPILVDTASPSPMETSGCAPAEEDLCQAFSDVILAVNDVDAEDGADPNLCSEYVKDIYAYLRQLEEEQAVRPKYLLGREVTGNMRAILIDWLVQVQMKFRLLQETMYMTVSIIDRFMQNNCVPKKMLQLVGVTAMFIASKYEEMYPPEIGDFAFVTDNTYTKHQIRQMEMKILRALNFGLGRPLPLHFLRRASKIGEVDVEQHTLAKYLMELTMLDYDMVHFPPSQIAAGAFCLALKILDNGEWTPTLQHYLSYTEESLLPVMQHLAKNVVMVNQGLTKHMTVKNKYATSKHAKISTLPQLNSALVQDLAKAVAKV

Compound: CS(=O)(=O)N[C@H]1CC[C@H](Nc2ncc3cc4n(c3n2)C2(CCCCC2)CNC4=O)CC1 [Compound 22, N-((1,4-trans)-4-((6′-oxo-7′,8′-dihydro-6′H-spiro[cyclohexane-1,9′-pyrazino[1′,2′:1,5]pyrrolo[2,3-d]pyrimidin]-2′-yl)amino)cyclohexyl)methanesulfonamide]
- IC50 (CDK1/Cyclin B1): 0.41 µM
- IC50 (CDK2/Cyclin A): 0.078 µM
- IC50 (CDK2/Cyclin E): 0.19 µM
- IC50 (CDK3/Cyclin E): 0.51 µM
- IC50 (CDK4/Cyclin D1): 0.069 µM
- IC50 (CDK5/p35): 0.17 µM
- IC50 (CDK5/p25): 0.23 µM
- IC50 (CDK6/Cyclin D3): 0.35 µM
- IC50 (CDK7/Cyclin H): 3.4 µM
- IC50 (CDK9/Cyclin T): 0.056 µM

Compound: O=C1NCC2(CCCCC2)n2c1cc1cnc(N[C@H]3CCCNC3=O)nc12 [Compound 23, (S)-2′-((2-oxopiperidin-3-yl)amino)-7′,8′-dihydro-6′H-spiro[cyclohexane-1,9′-pyrazino[1′,2′:1,5]pyrrolo[2,3-d]pyrimidin]-6′-one]
- IC50 (CDK1/Cyclin B1): 39 µM
- IC50 (CDK2/Cyclin A): 28 µM
- IC50 (CDK2/Cyclin E): 35 µM
- IC50 (CDK3/Cyclin E): 56 µM
- IC50 (CDK4/Cyclin D1): 0.17 µM
- IC50 (CDK5/p35): 47 µM
- IC50 (CDK5/p25): 55 µM
- IC50 (CDK6/Cyclin D3): 0.94 µM
- IC50 (CDK7/Cyclin H): 61 µM
- IC50 (CDK9/Cyclin T): 0.69 µM

Compound: O=C1CC[C@H](Nc2ncc3cc4n(c3n2)C2(CCCCC2)CNC4=O)CN1 [Compound 24, (S)-2′-((6-oxopiperidin-3-yl)amino)-7′,8′-dihydro-6′H-spiro[cyclohexane-1,9′-pyrazino[1′,2′:1,5]pyrrolo[2,3-d]pyrimidin]-6′-one]
- IC50 (CDK1/Cyclin B1): 0.56 µM
- IC50 (CDK2/Cyclin A): 0.22 µM
- IC50 (CDK2/Cyclin E): 0.24 µM
- IC50 (CDK3/Cyclin E): 0.29 µM
- IC50 (CDK4/Cyclin D1): 0.25 µM
- IC50 (CDK5/p35): 0.33 µM
- IC50 (CDK5/p25): 0.26 µM
- IC50 (CDK6/Cyclin D3): 1 µM
- IC50 (CDK7/Cyclin H): 0.47 µM
- IC50 (CDK9/Cyclin T): 0.025 µM

Compound: O=C1NCC2(CCCCC2)n2c1cc1cnc(N[C@H]3Cc4ccccc4NC3=O)nc12 [Compound 27, (S)-2′-((2-oxo-1,2,3,4-tetrahydroquinolin-3-yl)amino)-7′,8′-dihydro-6′H-spiro[cyclohexane-1,9′-pyrazino[1′,2′:1,5]pyrrolo[2,3-d]pyrimidin]-6′-one]
- IC50 (CDK1/Cyclin B1): 8.9 µM
- IC50 (CDK2/Cyclin A): 8 µM
- IC50 (CDK2/Cyclin E): 11 µM
- IC50 (CDK3/Cyclin E): 26 µM
- IC50 (CDK4/Cyclin D1): 0.27 µM
- IC50 (CDK5/p35): 10 µM
- IC50 (CDK5/p25): 9.6 µM
- IC50 (CDK6/Cyclin D3): 0.97 µM
- IC50 (CDK7/Cyclin H): 14 µM
- IC50 (CDK9/Cyclin T): 0.56 µM

Compound: O=C1NCC2(CCCCC2)n2c1cc1cnc(NC(=O)[C@H]3CNCC[C@H]3c3ccccc3)nc12 [Compound 28, (3R,4R)-N-(6′-oxo-7′,8′-dihydro-6′H-spiro[cyclohexane-1,9′-pyrazino[1′,2′:1,5]pyrrolo[2,3-d]pyrimidin]-2′-yl)-4-phenylpiperidine-3-carboxamide]
- IC50 (CDK1/Cyclin B1): 93 µM
- IC50 (CDK2/Cyclin A): 67 µM
- IC50 (CDK2/Cyclin E): > 100 µM
- IC50 (CDK3/Cyclin E): > 100 µM
- IC50 (CDK4/Cyclin D1): 9 µM
- IC50 (CDK5/p35): > 100 µM
- IC50 (CDK5/p25): > 100 µM
- IC50 (CDK6/Cyclin D3): > 100 µM
- IC50 (CDK7/Cyclin H): > 100 µM
- IC50 (CDK9/Cyclin T): 0.24 µM

Compound: C[C@H]1NCCC[C@H]1C(=O)Nc1ncc2cc3n(c2n1)C1(CCCCC1)CNC3=O [Compound 30, (2R,3R)-2-methyl-N-(6′-oxo-7′,8′-dihydro-6′H-spiro[cyclohexane-1,9′-pyrazino[1′,2′:1,5]pyrrolo[2,3-d]pyrimidin]-2′-yl)piperidine-3-carboxamide]
- IC50 (CDK1/Cyclin B1): 3.8 µM
- IC50 (CDK2/Cyclin A): 1.9 µM
- IC50 (CDK2/Cyclin E): 5.4 µM
- IC50 (CDK3/Cyclin E): 6.9 µM
- IC50 (CDK4/Cyclin D1): 1.5 µM
- IC50 (CDK5/p35): 8 µM
- IC50 (CDK5/p25): 8.4 µM
- IC50 (CDK6/Cyclin D3): 15 µM
- IC50 (CDK7/Cyclin H): 4.5 µM
- IC50 (CDK9/Cyclin T): 0.045 µM

Compound: O=C1NCC2(CCCCC2)n2c1cc1cnc(NC(=O)[C@@H]3CCNC3)nc12 [Compound 32, (R)-N-(6′-oxo-7′,8′-dihydro-6′H-spiro[cyclohexane-1,9′-pyrazino[1′,2′:1,5]pyrrolo[2,3-d]pyrimidin]-2′-yl)pyrrolidine-3-carboxamide]
- IC50 (CDK1/Cyclin B1): 5.6 µM
- IC50 (CDK2/Cyclin A): 3.1 µM
- IC50 (CDK2/Cyclin E): 12 µM
- IC50 (CDK3/Cyclin E): 8.6 µM
- IC50 (CDK4/Cyclin D1): 2.3 µM
- IC50 (CDK5/p35): 16 µM
- IC50 (CDK5/p25): 19 µM
- IC50 (CDK6/Cyclin D3): 14 µM
- IC50 (CDK7/Cyclin H): 12 µM
- IC50 (CDK9/Cyclin T): 0.012 µM

Compound: O=C1NCC2(CCCCC2)n2c1cc1cnc(NC(=O)[C@H]3CCNC3)nc12 [Compound 33, (S)-N-(6′-oxo-7′,8′-dihydro-6′H-spiro[cyclohexane-1,9′-pyrazino[1′,2′:1,5]pyrrolo[2,3-d]pyrimidin]-2′-yl)pyrrolidine-3-carboxamide]
- IC50 (CDK1/Cyclin B1): 16 µM
- IC50 (CDK2/Cyclin A): 6.1 µM
- IC50 (CDK2/Cyclin E): 26 µM
- IC50 (CDK3/Cyclin E): 23 µM
- IC50 (CDK4/Cyclin D1): 3.3 µM
- IC50 (CDK5/p35): 34 µM
- IC50 (CDK5/p25): 34 µM
- IC50 (CDK6/Cyclin D3): 12 µM
- IC50 (CDK7/Cyclin H): 20 µM
- IC50 (CDK9/Cyclin T): 0.035 µM

Compound: O=C(C[C@@H]1CCCN1)Nc1ncc2cc3n(c2n1)C1(CCCCC1)CNC3=O [Compound 34, (S)-N-(6′-oxo-7′,8′-dihydro-6′H-spiro[cyclohexane-1,9′-pyrazino[1′,2′:1,5]pyrrolo[2,3-d]pyrimidin]-2′-yl)-2-(pyrrolidin-2-yl)acetamide]
- IC50 (CDK1/Cyclin B1): 18 µM
- IC50 (CDK2/Cyclin A): 12 µM
- IC50 (CDK2/Cyclin E): 27 µM
- IC50 (CDK3/Cyclin E): 33 µM
- IC50 (CDK4/Cyclin D1): 2.9 µM
- IC50 (CDK5/p35): 29 µM
- IC50 (CDK5/p25): 52 µM
- IC50 (CDK6/Cyclin D3): 8.4 µM
- IC50 (CDK7/Cyclin H): 17 µM
- IC50 (CDK9/Cyclin T): 0.19 µM
